# Patent US11590116B2 (THERAVANCE BIOPHARMA R&D IP, LLC, priority 2019, dated 2023)
# Experiments:
# [1] = target: T1, recombinant human ALK5 (TGF-βR1) protein (Homo sapiens, UniProt P36897); experiment: Biochemical ALK5 (TGF-βR1) assay to measure pKi (LANCE Ultra ULight kinase assay); settings: apparent pKi from pIC50 by Cheng-Prusoff, read-out: ALK5 pKi (converted)
# T1 construct: purchased Life Technologies PR9075A
# T1 sequence (P36897 34-503): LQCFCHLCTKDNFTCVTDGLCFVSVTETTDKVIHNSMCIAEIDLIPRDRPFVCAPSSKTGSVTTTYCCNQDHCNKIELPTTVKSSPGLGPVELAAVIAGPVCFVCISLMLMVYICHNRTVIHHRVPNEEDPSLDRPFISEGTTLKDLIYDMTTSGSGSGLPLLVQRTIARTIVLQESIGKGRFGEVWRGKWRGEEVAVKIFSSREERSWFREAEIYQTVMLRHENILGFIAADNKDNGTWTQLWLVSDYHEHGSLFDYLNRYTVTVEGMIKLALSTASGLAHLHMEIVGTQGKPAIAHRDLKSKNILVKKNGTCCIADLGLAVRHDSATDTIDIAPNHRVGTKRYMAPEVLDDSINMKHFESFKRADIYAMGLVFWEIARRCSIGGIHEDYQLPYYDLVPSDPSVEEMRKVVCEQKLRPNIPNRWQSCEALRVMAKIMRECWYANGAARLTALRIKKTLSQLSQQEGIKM
# Summary of the method: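 After a 60 min room-temperature preincubation of ALK5 with compound, phosphorylation proceeds 60 min at 37 °C on ATP addition (125 μM as 5× stock). Detection: Eu-labelled phospho-Thr1342 Topo IIα antibody in EDTA buffer, pH 7.0; emission 665 nm.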
# [2] = tested on: TGF-β-stimulated SMAD3 phosphorylation in BEAS-2B cells; experiment: Cellular ALK5 potency assay, inhibition of TGF-β stimulated pSMAD3 formation in BEAS-2B cells; type: cell-based; settings: Homo sapiens; inhibition of TGF-β stimulated pSMAD3 formation, BEAS-2B cells; read-out: BEAS2B pIC50 (converted)
# Summary of the method: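 BEAS-2B human lung epithelial cells, seeded overnight, were pre-treated with compound in HBSS/25 mM HEPES/1% BSA for 1 h at 37 °C, then stimulated with TGF-β (final 10 ng/mL) for 30 min. Lysates were assayed for pSMAD3 by AlphaLISA; pIC50 came from dose-dependent signal change versus TGF-β-stimulated untreated cells.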
SMILES,Ki [1],IC50 [2]
"Cc1cccc(-c2[nH]cnc2-c2ccc3ncc(-c4nc(C5=CCNCC5)cs4)cc3c2)n1 [Compound 1051, 2-(6-(5-(6-methylpyridin-2-yl)-1H-imidazol-4-yl)quinolin-3-yl)-4-(1,2,3,6-tetrahydropyridin-4-yl)thiazole]",0.0398 to 0.316 nM,< 20 nM
"Cc1cccc(-c2[nH]cnc2-c2ccc3ncc(C(=O)O[C@H]4CC[C@](C)(N)CC4)cc3c2)n1 [Compound 771, (4-amino-4-methyl-cyclohexyl) 6-[5-(6-methyl-2-pyridyl)-1H-imidazol-4-yl]quinoline-3-carboxylate]",0.0398 to 0.316 nM,25.1 to 158 nM
"Cc1cccc(-c2n[nH]cc2-c2ccc3ncc(N4CC5CN(C(C)C)CC54)cc3n2)n1 (stereo not shown) [Compound 186, 7-(3-isopropyl-3,6-diazabicyclo[3.2.0]heptan-6-yl)-2-[3-(6-methyl-2-pyridyl)-1H-pyrazol-4-yl]-1,5-naphthyridine]",0.398 to 3.16 nM,25.1 to 158 nM
"Cc1cccc(-c2n[nH]cc2-c2ccc3ncc(-c4cn(-c5ccccc5)nn4)cc3n2)n1 [Compound 111, 2-[3-(6-methyl-2-pyridyl)-1H-pyrazol-4-yl]-7-(1-phenyltriazol-4-yl)-1,5-naphthyridine]",0.0398 to 0.316 nM,< 20 nM
"CCOC(=O)c1ccnc2ccc(-c3c[nH]nc3-c3cccc(C)n3)nc12 [Compound 800, ethyl 6-[3-(6-methyl-2-pyridyl)-1H-pyrazol-4-yl]-1,5-naphthyridine-4-carboxylate]",0.0398 to 0.316 nM,25.1 to 158 nM
"Cc1cccc(-c2nc3ccccn3c2-c2ccc3ncc(-c4cc5n(n4)CCNC5)cc3n2)n1 [Compound 693, 2-[2-(6-methyl-2-pyridyl)imidazo[1,2-a]pyridin-3-yl]-7-(4,5,6,7-tetrahydropyrazolo[1,5-a]pyrazin-2-yl)-1,5-naphthyridine]",< 0.0316 nM,< 20 nM
"COc1nc(-c2ccc3ncc(C4=CCC5(CCNCC5)CC4)cc3c2)c(-c2cccc(C)n2)[nH]1 [Compound 1251, 9-[6-[2-methoxy-5-(6-methyl-2-pyridyl)-1H-imidazol-4-yl]-3-quinolyl]-3-azaspiro[5.5]undec-9-ene]",< 0.0316 nM,25.1 to 158 nM
"Cc1cccc(-c2n[nH]cc2-c2ccc3ncc(N4CC(N)C4)cc3n2)n1 [Compound 193, 1-[6-[3-(6-methyl-2-pyridyl)-1H-pyrazol-4-yl]-1,5-naphthyridin-3-yl]azetidin-3-amine]",0.0398 to 0.316 nM,25.1 to 158 nM
"Cc1nc(-c2n[nH]cc2-c2ccc3ncc(-c4nc5c([nH]4)CNCC5)cc3n2)ccc1F [Compound 425, 2-[3-(5-fluoro-6-methyl-2-pyridyl)-1H-pyrazol-4-yl]-7-(4,5,6,7-tetrahydro-3H-imidazo[4,5-c]pyridin-2-yl)-1,5-naphthyridine]",0.0398 to 0.316 nM,200 to 1260 nM
"Cc1cccc(-c2[nH]cnc2-c2ccc3ncc(-c4cccc(N5CCNCC5)n4)cc3c2)n1 [Compound 1100, 6-[5-(6-methyl-2-pyridyl)-1H-imidazol-4-yl]-3-(6-piperazin-1-yl-2-pyridyl)quinoline]",0.0398 to 0.316 nM,< 20 nM
"Cc1cccc(-c2n[nH]cc2-c2ccc3ncc(-c4cncnc4)cc3n2)n1 [Compound 416, 2-[3-(6-methyl-2-pyridyl)-1H-pyrazol-4-yl]-7-pyrimidin-5-yl-1,5-naphthyridine]",0.0398 to 0.316 nM,< 20 nM
"Cc1cccc(-c2[nH]cnc2-c2ccc3ncc(-c4csc(C(=O)O[C@@H]5CCNC5)n4)cc3c2)n1 [Compound 1104, [(3R)-pyrrolidin-3-yl] 4-[6-[5-(6-methyl-2-pyridyl)-1H-imidazol-4-yl]-3-quinolyl]thiazole-2-carboxylate]",0.0398 to 0.316 nM,25.1 to 158 nM
"Cc1cccc(-c2[nH]cnc2-c2ccc3ncc(-c4ncc(C(=O)OCC5CNC5)s4)cc3c2)n1 [Compound 1236, azetidin-3-ylmethyl 2-[6-[5-(6-methyl-2-pyridyl)-1H-imidazol-4-yl]-3-quinolyl]thiazole-5-carboxylate]",0.0398 to 0.316 nM,25.1 to 158 nM
"Cc1cccc(-c2n[nH]cc2-c2ccc3ncc(-c4cn[nH]c4-c4cccc(C)n4)cc3n2)n1 [Compound 604, 2-[3-(6-methyl-2-pyridyl)-1H-pyrazol-4-yl]-7-[5-(6-methyl-2-pyridyl)-1H-pyrazol-4-yl]-1,5-naphthyridine]",0.398 to 3.16 nM,25.1 to 158 nM
"Cc1cccc(-c2[nH]cnc2-c2ccc3ncc(-c4cccc(C(=O)O)n4)cc3c2)n1 [Compound 1041, 6-[6-[5-(6-methyl-2-pyridyl)-1H-imidazol-4-yl]-3-quinolyl]pyridine-2-carboxylic acid]",0.0398 to 0.316 nM,1580 to 10000 nM
"Cc1cccc(-c2[nH]cnc2-c2ccc3ncc(-c4ccc(C(=O)O)cn4)cc3c2)n1 [Compound 1091, 6-[6-[5-(6-methyl-2-pyridyl)-1H-imidazol-4-yl]-3-quinolyl]pyridine-3-carboxylic acid]",< 0.0316 nM,1580 to 10000 nM
"Cc1cccc(-c2[nH]cnc2-c2ccc3ncc(-c4ncc(C(=O)OC5CCNCC5)cn4)cc3c2)n1 [Compound 1101, 4-piperidyl 2-[6-[5-(6-methyl-2-pyridyl)-1H-imidazol-4-yl]-3-quinolyl]pyrimidine-5-carboxylate]",0.0398 to 0.316 nM,25.1 to 158 nM
"Cc1cccc(-c2n[nH]cc2-c2ccc3ncc(-c4nc(C(=O)O)co4)cc3n2)n1 [Compound 546, 2-[6-[3-(6-methyl-2-pyridyl)-1H-pyrazol-4-yl]-1,5-naphthyridin-3-yl]oxazole-4-carboxylic acid]",0.398 to 3.16 nM,1580 to 10000 nM
"Cc1nc(-c2n[nH]cc2-c2ccc3ncc(NCCN4CCN(C(C)C)CC4)cc3n2)ccc1F [Compound 43, 6-[3-(5-fluoro-6-methyl-2-pyridyl)-1H-pyrazol-4-yl]-N-[2-(4-isopropylpiperazin-1-yl)ethyl]-1,5-naphthyridin-3-amine]",0.0398 to 0.316 nM,25.1 to 158 nM
"Cc1cccc(-c2[nH]cnc2-c2ccc3ncc(C(=O)OCCCN4CCNCC4)cc3c2)n1 [Compound 897, 3-(piperazin-1-yl)propyl 6-(5-(6-methylpyridin-2-yl)-1H-imidazol-4-yl)quinoline-3-carboxylate]",0.0398 to 0.316 nM,25.1 to 158 nM
"Cc1cccc(-c2[nH]cnc2-c2ccc3ncc(C4=CCC(C(=O)OCC5CNC5)CC4)cc3c2)n1 (stereo not shown) [Compound 36, azetidin-3-ylmethyl 4-[6-[5-(6-methyl-2-pyridyl)-1H-imidazol-4-yl]-3-quinolyl]cyclohex-3-ene-1-carboxylate]",0.0398 to 0.316 nM,25.1 to 158 nM
"Cc1cccc(-c2n[nH]cc2-c2ccc3ncc(N4CCCCC4)cc3n2)n1 [Compound 22, 2-[3-(6-methyl-2-pyridyl)-1H-pyrazol-4-yl]-7-(1-piperidyl)-1,5-naphthyridine]",0.0398 to 0.316 nM,25.1 to 158 nM
"Cc1cccc(-c2[nH]cnc2-c2ccc3ncc(C(=O)O[C@@H]4CCCC[C@H]4N)cc3c2)n1 [Compound 880, (1R,2R)-2-aminocyclohexyl 6-(5-(6-methylpyridin-2-yl)-1H-imidazol-4-yl)quinoline-3-carboxylate]",0.398 to 3.16 nM,25.1 to 158 nM
"Cc1cccc(-c2n[nH]cc2-c2ccc3nccc(CN(C)CCN4CCOCC4)c3n2)n1 [Compound 828, N-methyl-N-[[6-[3-(6-methyl-2-pyridyl)-1H-pyrazol-4-yl]-1,5-naphthyridin-4-yl]methyl]-2-morpholino-ethanamine]",3.98 to 31.6 nM,25.1 to 158 nM
"CCOC(=O)CN1CCN(Cc2ccnc3ccc(-c4c[nH]nc4-c4cccc(C)n4)nc23)CC1 [Compound 821, ethyl 2-[4-[[6-[3-(6-methyl-2-pyridyl)-1H-pyrazol-4-yl]-1,5-naphthyridin-4-yl]methyl]piperazin-1-yl]acetate]",0.398 to 3.16 nM,25.1 to 158 nM
"Cc1cccc(-c2[nH]cnc2-c2ccc3ncc(C(=O)OCCCC4CCNCC4)cc3c2)n1 [Compound 1132, 3-(4-piperidyl)propyl 6-[5-(6-methyl-2-pyridyl)-1H-imidazol-4-yl]quinoline-3-carboxylate]",0.0398 to 0.316 nM,25.1 to 158 nM
"Cc1cccc(-c2[nH]cnc2-c2ccc3ncc(N4CCN(C)C(CC(=O)O)C4)cc3c2)n1 (stereo not shown) [Compound 688, 2-[1-methyl-4-[6-[5-(6-methyl-2-pyridyl)-1H-imidazol-4-yl]-3-quinolyl]piperazin-2-yl]acetic acid]",0.0398 to 0.316 nM,1580 to 10000 nM
"COc1ccc(-c2cnc3ccc(-c4c[nH]nc4-c4cccc(C)n4)nc3c2)cn1 [Compound 420, 7-(6-methoxy-3-pyridyl)-2-[3-(6-methyl-2-pyridyl)-1H-pyrazol-4-yl]-1,5-naphthyridine]",< 0.0316 nM,< 20 nM
"Cc1cccc(-c2[nH]cnc2-c2ccc3nccc(C4CCCN4)c3c2)n1 (stereo not shown) [Compound 154, 6-[5-(6-methyl-2-pyridyl)-1H-imidazol-4-yl]-4-pyrrolidin-2-yl-quinoline]",3.98 to 31.6 nM,200 to 1260 nM
